Reference: US8053474B2, “Compound with carboxyl acid group and amide group and application thereof” (Corum Inc., priority 2009, dated 2011)

What was measured:
[1] = tested on: Mushroom Tyrosinase; experiment: Mushroom Tyrosinase Inhibition Test (Tyrosine base); format: biochemical; conditions: Tyrosine base (Tyrosine 5 mg/mL, pH 6.5); sample solution 2% in water, 100 μL in 900 μL substrate; 60 minutes, 492 nm
Method: Mushroom Tyrosinase Inhibition Test (Tyrosine Base): Preparation: Tyrosine (5 mg/mL) were dissolved in pH 6.5 buffer solution. Samples were dissolved in water and prepared the concentration at 2%. Method: 900 μL of Tyrosine solution was added into 100 μL of sample solution (or blank solution) and measured by thermo spectronic 492 nm (Aso or Ab0). 40 μL of mushroom tyrosinase buffer solution was added into mixture. After reaction for 60 minutes, the mixture was measured by thermo spectronic (As60 or Ab60) (FIG. 2). Calculation: [formula]

[2] = tested on: Mushroom Tyrosinase; experiment: Mushroom Tyrosinase Inhibition Test (Dopa base); format: biochemical; conditions: Dopa base (L-Dopa 1 mg/mL, pH 6.5); sample solution 2% in water, 100 μL in 900 μL substrate; 3 min, 475 nm
Method: Mushroom Tyrosinase Inhibition Test (Dopa Base):
Preparation: L-Dopa (L-3,4-dihydroxyphenylalanine; 1 mg/mL) was dissolved in pH 6.5 buffer solution. Samples were dissolved in water and prepared the concentration at 2%.
Method: 900 μL of L-Dopa solution was added into 100 μL of sample solution (or blank solution) and measured by thermo spectronic 475 nm (Aso or Ab0). 15 μL of mushroom […] buffer solution was added into mixture. After reaction for 3 min, mixture was measured by thermo spectronic (As3 or Ab3) (FIG. 1).

[3] = Water Solubility; format: physicochemical; conditions: in water

SMILES | Mushroom Tyrosinase Inhibition [1] | Mushroom Tyrosinase Inhibition [2] | Water Solubility [3]
CN(C)CCNC(=O)CCCCCCCC(=O)O [(I), 8-(2-Dimethylamino-ethylcarbamoyl)-octanoic acid] | 82.9% | 74.3% | 
CN(C)CCCNC(=O)CCCCCCCC(=O)O [(III), 8-(3-Dimethylamino-propylcarbamoyl)-octanoic acid] | 78.4% | 56.3% | 33%
CN(C)CCCNC(=O)CCCCCCCCC(=O)O [(V), 9-(3-Dimethylamino-propylcarbamoyl) nonanoic acid] | 99.3% | 60.0% | 29%
CC(C)N(CCNC(=O)CCCCCCCC(=O)O)C(C)C [(II), 8-(2-Diisopropylamino-ethylcarbamoyl)-octanoic acid] | 77.2% | 45.7% | 22%
CN(C)CCNC(=O)CCCCCCCCC(=O)O [(IV), 9-(2-Dimethylamino-ethylcarbamoyl)-nonanoic acid] | 84.1% | 50.6% | 17%
O=C(O)CCCCCCCC(=O)O [Azelaic acid, reference compound] |  |  | <0.5%
